{"source": "ChEMBL document CHEMBL1649511", "about": "“Reduction of amphotericin B-induced renal tubular apoptosis by N-acetylcysteine” (2009)", "type_in_all_cases": "functional", "set-up_in_all_cases": "scale not given: the % may be the effect or the level left", "conditions_in_all_cases": "route intraperitoneal", "key": {"[1]": {"system": "Rattus norvegicus", "assay": "Inhibition of amphotericin B-induced renal tubular apoptosis in Sprague-Dawley rat assessed as apoptotic index at 30 mg/kg, ip BID measured post last dose"}, "[2]": {"system": "Rattus norvegicus", "assay": "Inhibition of amphotericin B-induced renal tubular apoptosis in Sprague-Dawley rat assessed as apoptotic index at 60 mg/kg, ip BID measured post last dose"}, "[3]": {"system": "Rattus norvegicus", "assay": "Inhibition of amphotericin B-induced renal tubular apoptosis in Sprague-Dawley rat assessed as apoptotic index at 120 mg/kg, ip BID measured post last dose"}}}
{"compound": "CC(=O)N[C@@H](CS)C(=O)O", "note": "[ACETYLCYSTEINE]", "values": [{"measurement": "Activity", "setting": "[1]", "value": 27.4, "unit": "%"}, {"measurement": "Activity", "setting": "[2]", "value": 23.6, "unit": "%"}, {"measurement": "Activity", "setting": "[3]", "value": 23.5, "unit": "%"}]}
